System: 252836-082-R-J2-PDC tumor spheroids, viability
Test: Anticancer human tumor 252836-082-R-J2-PDC patient-derived head and neck squamous cell carcinoma cell line growth inhibition [PI3K]
Settings: spheroids with HUVEC and MSC; for viability, T/C: stronger effect = lower value
Source text: Combinatorial screen of targeted agents with the PI3K inhibitors inavolisib, alpelisib, duvelisib, and copanlisib in multi-cell type tumor spheroids
A high-throughput screen of multi-cell type tumor spheroids was designed to identify active combinations of targeted small molecules and PI3K pathway inhibitors. Complex spheroids include a stromal component modeled by human endothelial cells (HUVEC) and fibroblasts modeled by human mesenchymal stem cells (MSCs). The concentration ranges selected for each drug and investigational agent were based upon clinically achievable concentrations if the clinical Cmax of the agent was known.
Compounds. The drugs and investigational agents: inavolisib (NSC800729), alpelisib (NSC765974), duvelisib (NSC772469), copanlisib (NSC816437), ipatasertib (NSC767898), afuresertib (NSC778305), talazoparib (NSC767125), sapanisertib (NSC764658), selumetinib (NSC741078), tovorafenib (DAY101, NSC766906), vemurafenib (NSC761431), ravoxertinib (NSC781343), sotorasib (NSC818433), MRTX1133 (NSC 836407), abemaciclib (NSC 768073), palbociclib (NSC758247), venetoclax (NSC 766270), SY5609 (NSC837396), enzalutamide (NSC755605), and darolutamide (NSC825331), were obtained from the National Cancer Institute (NCI) Developmental Therapeutics Program Chemical Repository. The FDA-approved anticancer drug set is available from the NCI Developmental Therapeutics Program. […] The stock solutions were prepared in dimethyl sulfoxide (DMSO, Sigma-Aldrich, St. Louis, MO, cat. D2650) at 800-fold the tested concentration and stored at -70 degrees C prior to their use. All drugs and investigational agents were tested over a range starting from a high concentration at or near the clinical Cmax and decreasing in half-log increments. If the clinical Cmax for an agent had not been determined, the highest concentration tested was 10 microM.
Cell Culture. All cells were maintained in an incubator at 37 degrees C and 5% CO2 with 95% humidity. The PDC lines were cultured according to standard operating procedures established by the NCI PDMR (https://pdmr.cancer.gov/sops/default.htm). All PDCs were thawed and cultured in Matrigel-coated flasks prepared with a working solution of 1X Ham's F-12 nutrient mix, without supplementation (Invitrogen, Waltham, MA, cat. 11765054), 100 U/mL penicillin-streptomycin (Invitrogen, cat. 15140122), and 2.5% Matrigel (Corning Inc., Corning, NY, cat. 354248) for the first three passages. The 354836-022-R-J1-PDC, 475296-252-R-J1-PDC, and 997726-040-R-J2-PDC lines were cultured in 6A media, which includes advanced DMEM/F-12 (Thermo Fisher Scientific, cat. 12634028), 10 mM HEPES (Thermo Fisher Scientific, cat. 15630080), 1X GlutaMAX supplement (Thermo Fisher Scientific, cat. 35050061), 0.1 mg/mL primocin (InvivoGen, San Diego, CA, cat. ant-pm-2), 10% defined fetal bovine serum, heat inactivated (HyClone Laboratories Inc., Logan, UT, cat. SH30070.03HI), 50% L-WRN conditioned media (ATCC, cat. CRL-3276), 1.25 mM N-Acetyl-L-cysteine (Sigma-Aldrich, cat. A9165), 10 mM nicotinamide (Sigma-Aldrich, cat. N0636), 1X B-27 supplement (Thermo Fisher Scientific, cat. 17504044), 1X N-2 supplement (Thermo Fisher Scientific, cat. 17502048), and 10 microM Y-27632 dihydrochloride (Tocris Bioscience, Bristol, United Kingdom, cat. 1254). The 624824-186-R-J2-PDC line was cultured in 6C/Colon 1B media, which includes all 6A media components plus 50 ng/mL human EGF recombinant protein (Thermo Fisher Scientific, cat. PHG0311). […]

[1] = curve of first compound, second compound 0.00316 µM
[2] = curve of first compound, second compound 0.01 µM
[3] = curve of first compound, second compound 0.0316 µM
[4] = curve of first compound, second compound 0.1 µM
[5] = curve of first compound, second compound 0.316 µM
[6] = curve of first compound, second compound 1 µM
[7] = second compound 0.00316 µM, first compound 0.0316 µM
[8] = second compound 0.00316 µM, first compound 0.1 µM
[9] = second compound 0.00316 µM, first compound 0.316 µM
[10] = second compound 0.00316 µM, first compound 1 µM
[11] = second compound 0.00316 µM, first compound 3.16 µM
[12] = second compound 0.00316 µM, first compound 10 µM
[13] = second compound 0.01 µM, first compound 0.0316 µM
[14] = second compound 0.01 µM, first compound 0.1 µM
[15] = second compound 0.01 µM, first compound 0.316 µM
[16] = second compound 0.01 µM, first compound 1 µM
[17] = second compound 0.01 µM, first compound 3.16 µM
[18] = second compound 0.01 µM, first compound 10 µM
[19] = second compound 0.0316 µM, first compound 0.0316 µM
[20] = second compound 0.0316 µM, first compound 0.1 µM
[21] = second compound 0.0316 µM, first compound 0.316 µM
[22] = second compound 0.0316 µM, first compound 1 µM
[23] = second compound 0.0316 µM, first compound 3.16 µM
[24] = second compound 0.0316 µM, first compound 10 µM
[25] = second compound 0.1 µM, first compound 0.0316 µM
[26] = second compound 0.1 µM, first compound 0.1 µM
[27] = second compound 0.1 µM, first compound 0.316 µM
[28] = second compound 0.1 µM, first compound 1 µM
[29] = second compound 0.1 µM, first compound 3.16 µM
[30] = second compound 0.1 µM, first compound 10 µM
[31] = second compound 0.316 µM, first compound 0.0316 µM
[32] = second compound 0.316 µM, first compound 0.1 µM
[33] = second compound 0.316 µM, first compound 0.316 µM
[34] = second compound 0.316 µM, first compound 1 µM
[35] = second compound 0.316 µM, first compound 3.16 µM
[36] = second compound 0.316 µM, first compound 10 µM
[37] = second compound 1 µM, first compound 0.0316 µM
[38] = second compound 1 µM, first compound 0.1 µM
[39] = second compound 1 µM, first compound 0.316 µM
[40] = second compound 1 µM, first compound 1 µM
[41] = second compound 1 µM, first compound 3.16 µM
[42] = second compound 1 µM, first compound 10 µM
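Further: spheroids exposed to agents for seven days before readout.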
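Wherever viability, T/C is given: percent of vehicle DMSO control viability so 100% = untreated growth.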

SMILES: Cn1nccc1Nc1nccc(-c2ccn(C(CO)c3ccc(Cl)c(F)c3)c(=O)c2)n1 (stereo not drawn) + COc1c(OCCCN2CCOCC2)ccc2c3n(c(=NC(=O)c4cnc(N)nc4)nc12)CCN3
- IC50 [1]: > 10000 nM
- IC50 [2]: > 10000 nM
- IC50 [3]: 4370 nM
- IC50 [4]: < 31.6 nM
- IC50 [5]: < 31.6 nM
- IC50 [6]: < 31.6 nM
- viability, T/C [7]: 99.2%
- viability, T/C [8]: 86.3%
- viability, T/C [9]: 98%
- viability, T/C [10]: 90%
- viability, T/C [11]: 78.3%
- viability, T/C [12]: 70.3%
- viability, T/C [13]: 77.4%
- viability, T/C [14]: 78.3%
- viability, T/C [15]: 81.7%
- viability, T/C [16]: 79.1%
- viability, T/C [17]: 75.8%
- viability, T/C [18]: 50.2%
- viability, T/C [19]: 53%
- viability, T/C [20]: 65.4%
- viability, T/C [21]: 56.3%
- viability, T/C [22]: 56.8%
- viability, T/C [23]: 57.8%
- viability, T/C [24]: 31.1%
- viability, T/C [25]: 40.4%
- viability, T/C [26]: 33.8%
- viability, T/C [27]: 38.5%
- viability, T/C [28]: 34.8%
- viability, T/C [29]: 31.9%
- viability, T/C [30]: 19.5%
- viability, T/C [31]: 15.8%
- viability, T/C [32]: 14.1%
- viability, T/C [33]: 15.3%
- viability, T/C [34]: 10.4%
- viability, T/C [35]: 7.12%
- viability, T/C [36]: 4.49%
- viability, T/C [37]: 4.18%
- viability, T/C [38]: 4.13%
- viability, T/C [39]: 3.93%
- viability, T/C [40]: 1.52%
- viability, T/C [41]: 1.98%
- viability, T/C [42]: 0.32%

SMILES: Cn1ncnc1[C@H]1c2n[nH]c(=O)c3cc(F)cc(c23)N[C@@H]1c1ccc(F)cc1
- viability, T/C (compound 0.000316 µM): 97% [middle of 4 runs]
- viability, T/C (compound 0.001 µM): 95.9% [middle of 4 runs]
- viability, T/C (compound 0.00316 µM): 89.2% [middle of 4 runs]
- viability, T/C (compound 0.01 µM): 93.7% [middle of 4 runs]
- viability, T/C (compound 0.0316 µM): 69.4% [middle of 4 runs]
- viability, T/C (compound 0.1 µM): 55.5% [middle of 4 runs]
- IC50 (curve of compound): > 100 nM

SMILES: CC1(C)CCC(Nc2ncc(C(F)(F)F)c(-c3c[nH]c4c(P(C)(C)=O)c(C#N)ccc34)n2)CN1 (stereo not drawn) + COc1c(OCCCN2CCOCC2)ccc2c3n(c(=NC(=O)c4cnc(N)nc4)nc12)CCN3
- IC50 [1]: < 31.6 nM
- IC50 [2]: < 31.6 nM
- IC50 [3]: < 31.6 nM
- IC50 [4]: < 31.6 nM
- IC50 [5]: < 31.6 nM
- IC50 [6]: < 31.6 nM
- viability, T/C [7]: 30%
- viability, T/C [8]: 25.4%
- viability, T/C [9]: 25.2%
- viability, T/C [10]: 28.7%
- viability, T/C [11]: 34.5%
- viability, T/C [12]: 4.59%
- viability, T/C [13]: 24.9%
- viability, T/C [14]: 24.2%
- viability, T/C [15]: 25.5%
- viability, T/C [16]: 22.8%
- viability, T/C [17]: 26.4%
- viability, T/C [18]: 3.95%
- viability, T/C [19]: 22%
- viability, T/C [20]: 22.4%
- viability, T/C [21]: 22.7%
- viability, T/C [22]: 19.3%
- viability, T/C [23]: 22.3%
- viability, T/C [24]: 2.09%
- viability, T/C [25]: 15.1%
- viability, T/C [26]: 15.4%
- viability, T/C [27]: 17.4%
- viability, T/C [28]: 14.4%
- viability, T/C [29]: 18.4%
- viability, T/C [30]: 1.25%
- viability, T/C [31]: 8.82%
- viability, T/C [32]: 8.24%
- viability, T/C [33]: 8.82%
- viability, T/C [34]: 8.38%
- viability, T/C [35]: 8.08%
- viability, T/C [36]: 0.63%
- viability, T/C [37]: 2.41%
- viability, T/C [38]: 2.58%
- viability, T/C [39]: 2.51%
- viability, T/C [40]: 3.28%
- viability, T/C [41]: 2.74%
- viability, T/C [42]: 0.56%

SMILES: CC1(C)CCC(Nc2ncc(C(F)(F)F)c(-c3c[nH]c4c(P(C)(C)=O)c(C#N)ccc34)n2)CN1 (stereo not drawn) + CC(Nc1ccc2c(c1)OCCn1cc(N3C(=O)OCC3C(F)F)nc1-2)C(N)=O
- IC50 [1]: < 31.6 nM
- IC50 [2]: < 31.6 nM
- IC50 [3]: < 31.6 nM
- IC50 [4]: < 31.6 nM
- IC50 [5]: < 31.6 nM
- IC50 [6]: < 31.6 nM
- viability, T/C [7]: 27.2%
- viability, T/C [8]: 24.2%
- viability, T/C [9]: 29.6%
- viability, T/C [10]: 24.5%
- viability, T/C [11]: 26.2%
- viability, T/C [12]: 5.32%
- viability, T/C [13]: 27.5%
- viability, T/C [14]: 27.6%
- viability, T/C [15]: 25.7%
- viability, T/C [16]: 25.6%
- viability, T/C [17]: 23.5%
- viability, T/C [18]: 4.5%
- viability, T/C [19]: 26.8%
- viability, T/C [20]: 29.1%
- viability, T/C [21]: 22.2%
- viability, T/C [22]: 23.8%
- viability, T/C [23]: 27.3%
- viability, T/C [24]: 4.59%
- viability, T/C [25]: 24.1%
- viability, T/C [26]: 20.6%
- viability, T/C [27]: 22.1%
- viability, T/C [28]: 24.8%
- viability, T/C [29]: 22.9%
- viability, T/C [30]: 3.21%
- viability, T/C [31]: 20.6%
- viability, T/C [32]: 21%
- viability, T/C [33]: 21.1%
- viability, T/C [34]: 19.5%
- viability, T/C [35]: 20.2%
- viability, T/C [36]: 3.5%
- viability, T/C [37]: 18.4%
- viability, T/C [38]: 19.3%
- viability, T/C [39]: 16.6%
- viability, T/C [40]: 19.6%
- viability, T/C [41]: 18.2%
- viability, T/C [42]: 2.31%

Source: PubChem BioAssay AID1963985 (Molecular Pharmacology Branch, DTP, NCI, 2024)
